In data set [1] the test system is HSV-2 mediated calcium flux in HEK293-RyR1 cells. As to the kind of experiment: Calcium flux assay with Fluo-4 Direct Calcium Assay Kit. The following applies: for RFU drop in calcium flux: FIG. 6A-6B legend; for maximum average ΔRFU: treated cells minus cells only, HSV-2 MOI 0.01. It counts as cell-based. As for the experimental part:
The Fluo-4 Direct™ Calcium Assay Kit was be used to assess calcium response in RyR1-expressing cells treated with a calcium agonist (Carbachol) or infected with HSV-2 MS at an MOI of 0.01. For the virus-infected cells, procedures as described above were followed but with a 96-well black plate.
Cells were seeded in 100 μL of incubation medium in black 96-well plates coated with poly-D-lysine at 5.0E+04 cells per well and incubated at 37° C. with 5% CO2 overnight (16-20 hours). […]
A 2× Fluo-4 Direct™ calcium reagent loading solution with 5 mM probenecid was prepared by adding 10 mL of Fluo-4 Direct™ calcium assay buffer and 200 μL of the 250 mM stock solution of probenecid to one bottle of 2× Fluo-4 Direct™ calcium reagent (labeled Component A). The solution was vortexed and allowed to sit for five minutes for complete dissolution. […]
The fluorescence of each well was measured directly after the addition of carbachol with the Biotek Cytation 5 plate reader using the fluorescence reader settings for excitation at 494/10 nm and emission at 520/10 nm. The fluorescence measurements in relative fluorescence units (RFU) were recorded and exported to Excel.
ΔRFU is given in relative fluorescent units (RFU) as the maximum response (TA or virus treated cells) minus the minimum response (cells only).
On day 3, a 250 mM stock solution of probenecid was prepared by adding 1 mL of Fluo-4 Direct™ calcium assay buffer (labeled Component C) to each 77 mg vial of water-soluble probenecid. The vial was vortexed until dissolved.
Plated cells were removed from the incubator. TA/virus dilutions were removed and 100 μL of incubation medium was added to the plate. Then, 100 μL of 2× Fluo-4 Direct™ calcium reagent loading solution was added. Plates were incubated for 30 minutes at 37° C. with 5% CO2 followed by 30 minutes at room temperature. Carbachol dilutions (100 μL) were added to the plate that contains only cells as a positive control.
On the technique in general: Calcium flux is commonly read through the fluorescence of an indicator in the cells.

For data set [2] the following is noted: base form versus salt form (Miller et al. 1993); cited from earlier work.
The test system of data set [3] is HSV-2 MS in HEK293-RyR1 cells. As to the kind of experiment: HSV-2 cytopathic effect (CPE) inhibition assay, crystal violet staining. Particulars: for IC50: Human alphaherpesvirus 2, 72 h, read-out: IC50, CPE inhibition. It counts as cell-based, Herpes Simplex Virus 2, strain MS. As for the experimental part:
HSV-2 infection was established in HEK293-RyR1 cells by testing three different multiplicities of infection (MOI) as part of the development of the CPE inhibition assay. An inhibitor of HSV-2 was incubated with cells and subsequently infected with HSV-2 at three different MOIs. Cells-only and virus-only controls were included. Cells were observed daily to monitor CPE progression, and the incubation was allowed to continue until sufficient CPE of 60-80% is observed in the virus-only controls. CPE was quantified via crystal violet staining and results given as % inhibition and IC50 values, 50% of the maximum inhibitory dosage of the test article.
The virus was Herpes Simplex Virus 2, strain MS, lot 7172020, at MOI of 0.01 (ATCC, Catalog #VR-540). HEK293-RyR1 cell line was obtained from Kerafast (Cat. #EUR301). Growth medium was DMEM (High Glucose) supplemented with 10% FBS, 2 mM L-Glutamine, 1% Pen/Strep, 100 µg/ml Hygromycin. Incubation medium was DMEM (High Glucose) supplemented with 2% FBS, 2 mM L-Glutamine, 1% Pen/Strep. Infection medium was DMEM (High Glucose) supplemented with 2 mM L-Glutamine, 1% Pen/Strep. Acyclovir (as a control HSV-2 MS inhibitor) was stored at cell culture grade water (Ultrapure DNAse/RNase free distilled water, Thermo Scientific Cat. 10977015) and tested at concentrations of 10, 3.2, 1.0, 0.32, 0.10, 0.032, 0.010, 0.0032 50, 25, 12.5, 6.25, 3.125, 1.5625, 0.78125, 0.3906 100, 50, 25, 12.5, 6.25, 3.125, 1.5625, 0.78125 mg/ml. Carbachol (a Calcium agonist), obtained from Fisher Scientific (ASL0667403) was stored in cell culture-grade water and tested at concentrations of 333, 166.65, 83.325, 41.6625 mg/ml. […]
HSV-2 MS was prepared at the specific MOI in infection medium and added to the acyclovir/TA-containing wells in a dilution block. […] Plates were monitored daily to observe CPE levels. […]
After one hour, plates were washed with tap water and blotted on absorbent paper. Plates were allowed to air dry, and the absorbance of each well was read at 570 nm with a plate reader.
Absorbance values were exported into Excel. […]

Another data set has as its system HSV-2 genital herpes. As to the kind of experiment: Treatment of HSV-2 genital herpes in human subjects. It counts as in vivo. An excerpt: An otherwise healthy person presented pain with urination and a solitary sore on the vulva. It was initially unclear by visible inspection if the solitary sore was herpes or a shave injury. […] The patient reported Pain 7/10, and worse with urination. […] The patient was given the formulation to use at home (two applications per day). The patient was also offered a prescription for 1 gram of Valtrex to be taken twice a day.
As a comparison, before the date of the patient's treatment, typical otherwise healthy female patients of this same age presenting similar herpes sores are given a prescription for Valtrex and take up to two weeks to resolve their herpes ulcers.
A second human subject with a long history of HSV-2 who has previously taken oral Valtrex™ (Valacyclovir) to resolve past HSV-2 ulcerations was administered a representative pharmaceutical composition of this disclosure as described in Example 1. The subject has previously resolved HSV-2 ulcerations in 5-7 days after outbreak when administered Valtrex. The subject was administered the representative tetracaine composition twice a day for two days at which point the subject's lesions were completely re-epithelialized and the pain was reduced to 0/10. Before treatment, the subject reported pain at 5/10 at max. […]

Where [4] appears, read: at the highest concentration tested.

In brackets after ≈: the same amount, converted by molar mass. Like-named read-outs stand apart in the source and are kept apart here.

As usually defined, the IC50 is the point on the concentration scale where inhibition reaches its midpoint. `CCCCNc1ccc(C(=O)OCCN(C)C)cc1` [Tetracaine, 2-(dimethylamino)ethyl 4-(butylamino)benzoate]: the “RFU drop in calcium flux” value in data set [1] is recorded as 4000 RFU. In data set [1] (setting [4]), the “fold higher average ΔRFU than Acyclovir” value stood at 3.6 fold and the “maximum average ΔRFU” value was −6527.9 RFU. For the same compound, the “flux through the dermis” value in data set [2] was “fluxes more readily than the salt form”. Besides, in data set [3], the IC50 is 94.6 mg/mL (≈ 358 mM). In addition, the “cell morphology of treated cells” value in data set [3] (compared to cells only, virus-only and Acyclovir-treated cells, day 3 (FIG. 5D)) is reported as “Abnormal cell morphology”.
For `CC(C)[C@H](N)C(=O)OCCOCn1cnc2c(=O)[nH]c(N)nc21` [Valtrex], the “time to resolve HSV-2 ulcerations after outbreak” value in the data set with HSV-2 genital herpes (person, past outbreaks, oral) is 5 to 7 days. Further, in the data set with HSV-2 genital herpes (typical otherwise healthy female patients of same age with similar herpes sores, prescription), the “time to resolve herpes ulcers” value is on record as “up to two”.
In the case of `Nc1nc2c(ncn2COCCO)c(=O)[nH]1` [Acyclovir], the “RFU drop in calcium flux” value in data set [1] was “about 2000 RFU”. In addition, the “maximum average ΔRFU” value in data set [1] (setting [4]) is listed as −1801.6 RFU. Moreover, in data set [3] (HSV-2 MOI 0.01, 5.0×10^4 HEK293-RyR1 cells per well, day 3), the IC50 is 0.0457 mg/mL (≈ 0.203 mM).

Values taken from patent publication US20250319055A1, “COMPOSITIONS FOR TREATING GENITAL HERPES AND METHODS OF THEIR USE” (priority 2024, published 2025).
